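96-well plates; 48 h exposure; 5 concentrations. Endpoints by linear interpolation between flanking doses. Not reached: highest tested concentration assigned. At the GI50, growth is halved.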 The source made the active and inactive calls. Rule as the data show it: active = GI50 up to about 1.1 µM and inactive = higher.
Experiments:
Assay in all cases: inhibition of tumour cell growth, NCI panel, 48 h
MCF7 = system: MCF7
RXF 393 = system: RXF 393
HOP-92 = system: HOP-92
A498 = system: A498
NCI-H460 = system: NCI-H460
SF-539 = system: SF-539
M14 = system: M14
UO-31 = system: UO-31
K562 = system: K562
Malme-3M = system: Malme-3M
TK-10 = system: TK-10
NCI-H522 = system: NCI-H522
BT-549 = system: BT-549
PC-3 = system: PC-3
KM12 = system: KM12
OVCAR-3 = system: OVCAR-3
SW-620 = system: SW-620
SF-295 = system: SF-295
SNB-75 = system: SNB-75
T47D = system: T47D

CC(NC(=O)OC(C)(C)C)C(=O)NC(Cc1ccccc1)C(=O)NCC(=O)ON=C1CCCC1 (stereo not given)
GI50 (MCF7): 63.1 µM (inactive) | GI50 (RXF 393): > 100 µM (inactive) | GI50 (HOP-92): > 100 µM (inactive) | GI50 (A498): > 100 µM (inactive) | GI50 (NCI-H460): > 100 µM (inactive) | GI50 (SF-539): > 100 µM (inactive) | GI50 (M14): 53.3 µM (inactive) | GI50 (UO-31): 65.8 µM (inactive) | GI50 (K562): 43.6 µM (inactive) | GI50 (Malme-3M): > 100 µM (inactive) | GI50 (TK-10): > 100 µM (inactive) | GI50 (NCI-H522): 32.7 µM (inactive) | GI50 (BT-549): > 100 µM (inactive) | GI50 (PC-3): > 100 µM (inactive) | GI50 (KM12): 57.4 µM (inactive) | GI50 (OVCAR-3): > 100 µM (inactive) | GI50 (SW-620): > 100 µM (inactive) | GI50 (SF-295): > 100 µM (inactive) | GI50 (SNB-75): 93.1 µM (inactive) | GI50 (T47D): > 100 µM (inactive)

CC(C)NC(=O)OCc1c(COC(=O)NC(C)C)c(-c2ccc[n+](COC(=O)C3CC3)c2)n2c1CCC2
GI50 (MCF7): 49.5 µM (inactive) | GI50 (RXF 393): 34.2 µM (inactive) | GI50 (HOP-92): 40.8 µM (inactive) | GI50 (A498): 35.9 µM (inactive) | GI50 (NCI-H460): 24.2 µM (inactive) | GI50 (SF-539): 44.7 µM (inactive) | GI50 (M14): 85.9 µM (inactive) | GI50 (UO-31): 41.2 µM (inactive) | GI50 (K562): 32.6 µM (inactive) | GI50 (Malme-3M): > 100 µM (inactive) | GI50 (TK-10): > 100 µM (inactive) | GI50 (NCI-H522): 27.1 µM (inactive) | GI50 (BT-549): 76.6 µM (inactive) | GI50 (PC-3): 50.5 µM (inactive) | GI50 (KM12): > 100 µM (inactive) | GI50 (OVCAR-3): > 100 µM (inactive) | GI50 (SW-620): > 100 µM (inactive) | GI50 (SF-295): 45.9 µM (inactive) | GI50 (SNB-75): 70.6 µM (inactive) | GI50 (T47D): 86.7 µM (inactive)

CC[C@@]1(OC(=O)C(N)CCCCN)C(=O)OCc2c1cc1n(c2=O)Cc2cc3ccccc3nc2-1 (stereo not given in full)
GI50 (MCF7): 0.021 µM (active) | GI50 (RXF 393): 0.122 µM (active) | GI50 (HOP-92): 0.179 µM (active) | GI50 (A498): 0.0802 µM (active) | GI50 (NCI-H460): < 0.01 µM (active) | GI50 (SF-539): 0.0203 µM (active) | GI50 (M14): 0.0204 µM (active) | GI50 (UO-31): 0.0263 µM (active) | GI50 (K562): 0.103 µM (active) | GI50 (Malme-3M): 0.196 µM (active) | GI50 (TK-10): 2.55 µM (inactive) | GI50 (NCI-H522): 0.0454 µM (active) | GI50 (BT-549): 0.218 µM (active) | GI50 (PC-3): 0.171 µM (active) | GI50 (KM12): 0.35 µM (active) | GI50 (OVCAR-3): 0.352 µM (active) | GI50 (SW-620): 0.04 µM (active) | GI50 (SF-295): < 0.0109 µM (active) | GI50 (SNB-75): 0.0336 µM (active) | GI50 (T47D): 0.0326 µM (active)

Cc1ccc2cccc(-c3cccc4ccccc34)c2n1
GI50 (MCF7): > 10 µM (inactive) | GI50 (RXF 393): 13.6 µM (inactive) | GI50 (HOP-92): 12.6 µM (inactive) | GI50 (A498): 20.4 µM (inactive) | GI50 (NCI-H460): 27.5 µM (inactive) | GI50 (SF-539): 24 µM (inactive) | GI50 (M14): 17.2 µM (inactive) | GI50 (UO-31): 14.3 µM (inactive) | GI50 (K562): 4.66 µM (inactive) | GI50 (Malme-3M): 4.63 µM (inactive) | GI50 (TK-10): 11.3 µM (inactive) | GI50 (NCI-H522): 23.7 µM (inactive) | GI50 (BT-549): 30.3 µM (inactive) | GI50 (PC-3): 29.2 µM (inactive) | GI50 (KM12): 15 µM (inactive) | GI50 (OVCAR-3): 25.2 µM (inactive) | GI50 (SW-620): 25.2 µM (inactive) | GI50 (SF-295): 22.9 µM (inactive) | GI50 (SNB-75): 8.87 µM (inactive) | GI50 (T47D): 15.8 µM (inactive)

O=C1NC(SSC2=NNC3(C(=O)N2)c2ccccc2-c2ccccc23)=NNC12c1ccccc1-c1ccccc12
GI50 (MCF7): > 10 µM (inactive) | GI50 (RXF 393): > 10 µM (inactive) | GI50 (HOP-92): > 10 µM (inactive) | GI50 (A498): > 10 µM (inactive) | GI50 (NCI-H460): > 10 µM (inactive) | GI50 (SF-539): > 10 µM (inactive) | GI50 (M14): > 10 µM (inactive) | GI50 (UO-31): > 10 µM (inactive) | GI50 (K562): > 10 µM (inactive) | GI50 (Malme-3M): > 10 µM (inactive) | GI50 (TK-10): > 10 µM (inactive) | GI50 (NCI-H522): > 10 µM (inactive) | GI50 (BT-549): > 10 µM (inactive) | GI50 (PC-3): > 10 µM (inactive) | GI50 (KM12): > 10 µM (inactive) | GI50 (OVCAR-3): > 10 µM (inactive) | GI50 (SW-620): > 10 µM (inactive) | GI50 (SF-295): > 10 µM (inactive) | GI50 (SNB-75): > 10 µM (inactive) | GI50 (T47D): > 10 µM (inactive)

O=C1CS/C(=N/N=C/c2cn(Cc3ccc(Cl)cc3Cl)c3ccccc23)N1
GI50 (MCF7): 18.5 µM (inactive) | GI50 (RXF 393): 24.9 µM (inactive) | GI50 (HOP-92): 28.2 µM (inactive) | GI50 (A498): 19.9 µM (inactive) | GI50 (NCI-H460): 56.4 µM (inactive) | GI50 (SF-539): 18.2 µM (inactive) | GI50 (M14): 36.5 µM (inactive) | GI50 (UO-31): 31.8 µM (inactive) | GI50 (K562): 38.8 µM (inactive) | GI50 (Malme-3M): 76.4 µM (inactive) | GI50 (TK-10): > 100 µM (inactive) | GI50 (NCI-H522): 44.9 µM (inactive) | GI50 (BT-549): > 100 µM (inactive) | GI50 (PC-3): 19.6 µM (inactive) | GI50 (KM12): 54.3 µM (inactive) | GI50 (OVCAR-3): 59 µM (inactive) | GI50 (SW-620): 27.5 µM (inactive) | GI50 (SF-295): 64.4 µM (inactive) | GI50 (SNB-75): 19.1 µM (inactive) | GI50 (T47D): 23.1 µM (inactive)

C=C1C(C(O)C[C@H](C)C2O[C@@]3(CCCCO3)CCC2C)O[C@@H]2CCC3(CCC(/C=C/[C@@H](C)C4CC(C)=CC5(O4)O[C@H](C[C@](C)(O)C(=O)O)CCC5O)O3)OC2[C@@H]1O (stereo not given in full)
GI50 (MCF7): 0.0065 µM (active) | GI50 (RXF 393): 0.018 µM (active) | GI50 (HOP-92): 0.00375 µM (active) | GI50 (A498): 0.00564 µM (active) | GI50 (NCI-H460): 0.00408 µM (active) | GI50 (SF-539): 0.00254 µM (active) | GI50 (M14): 0.00176 µM (active) | GI50 (UO-31): 0.0527 µM (active) | GI50 (K562): 0.00429 µM (active) | GI50 (Malme-3M): 0.000764 µM (active) | GI50 (TK-10): 0.0162 µM (active) | GI50 (NCI-H522): 0.00182 µM (active) | GI50 (BT-549): 0.00681 µM (active) | GI50 (PC-3): 0.00545 µM (active) | GI50 (KM12): 0.00374 µM (active) | GI50 (OVCAR-3): 0.00239 µM (active) | GI50 (SW-620): 0.0134 µM (active) | GI50 (SF-295): 0.00578 µM (active) | GI50 (SNB-75): 0.000608 µM (active) | GI50 (T47D): 0.0326 µM (active)

OC1CC2CCC(C1)N2CCCN1c2ccccc2Sc2ccc(Cl)cc21 (stereo not given)
GI50 (MCF7): 1.59 µM (inactive) | GI50 (RXF 393): 1.74 µM (inactive) | GI50 (HOP-92): 2.5 µM (inactive) | GI50 (A498): 1.84 µM (inactive) | GI50 (NCI-H460): 1.75 µM (inactive) | GI50 (SF-539): 1.84 µM (inactive) | GI50 (M14): 1.81 µM (inactive) | GI50 (UO-31): 2.46 µM (inactive) | GI50 (K562): 2.04 µM (inactive) | GI50 (Malme-3M): 1.87 µM (inactive) | GI50 (TK-10): 1.66 µM (inactive) | GI50 (NCI-H522): 1.99 µM (inactive) | GI50 (BT-549): 4.86 µM (inactive) | GI50 (PC-3): 2.12 µM (inactive) | GI50 (KM12): 1.95 µM (inactive) | GI50 (OVCAR-3): 2.67 µM (inactive) | GI50 (SW-620): 2.43 µM (inactive) | GI50 (SF-295): 1.75 µM (inactive) | GI50 (SNB-75): 2.21 µM (inactive) | GI50 (T47D): 2.23 µM (inactive)

Cc1ccc(S(=O)(=O)NC(=O)Nc2nc[nH]n2)cc1
GI50 (MCF7): > 100 µM (inactive) | GI50 (RXF 393): > 100 µM (inactive) | GI50 (HOP-92): > 100 µM (inactive) | GI50 (A498): > 100 µM (inactive) | GI50 (NCI-H460): > 100 µM (inactive) | GI50 (SF-539): > 100 µM (inactive) | GI50 (M14): > 100 µM (inactive) | GI50 (UO-31): > 100 µM (inactive) | GI50 (K562): > 100 µM (inactive) | GI50 (Malme-3M): > 100 µM (inactive) | GI50 (TK-10): > 100 µM (inactive) | GI50 (NCI-H522): > 100 µM (inactive) | GI50 (BT-549): > 100 µM (inactive) | GI50 (PC-3): > 100 µM (inactive) | GI50 (KM12): > 100 µM (inactive) | GI50 (OVCAR-3): > 100 µM (inactive) | GI50 (SW-620): > 100 µM (inactive) | GI50 (SF-295): > 100 µM (inactive) | GI50 (SNB-75): > 100 µM (inactive) | GI50 (T47D): > 100 µM (inactive)
